Laboratory results reported in patent publication US20230391742A1, “SMALL MOLECULE COMPOUND AND USE AND COMPOSITION THEREOF” (SOOCHOW UNIVERSITY, priority 2021, published 2023).

Columns and labels:
NAC1 protein dimer = target: T1, NAC1 protein dimer (Homo sapiens, UniProt Q96RE7); assay: Dimer formation of NAC1 protein detected by immunoprecipitation and immunoblotting; assay type: biochemical; conditions: FIG. 1
T1 sequence (Q96RE7 1-527): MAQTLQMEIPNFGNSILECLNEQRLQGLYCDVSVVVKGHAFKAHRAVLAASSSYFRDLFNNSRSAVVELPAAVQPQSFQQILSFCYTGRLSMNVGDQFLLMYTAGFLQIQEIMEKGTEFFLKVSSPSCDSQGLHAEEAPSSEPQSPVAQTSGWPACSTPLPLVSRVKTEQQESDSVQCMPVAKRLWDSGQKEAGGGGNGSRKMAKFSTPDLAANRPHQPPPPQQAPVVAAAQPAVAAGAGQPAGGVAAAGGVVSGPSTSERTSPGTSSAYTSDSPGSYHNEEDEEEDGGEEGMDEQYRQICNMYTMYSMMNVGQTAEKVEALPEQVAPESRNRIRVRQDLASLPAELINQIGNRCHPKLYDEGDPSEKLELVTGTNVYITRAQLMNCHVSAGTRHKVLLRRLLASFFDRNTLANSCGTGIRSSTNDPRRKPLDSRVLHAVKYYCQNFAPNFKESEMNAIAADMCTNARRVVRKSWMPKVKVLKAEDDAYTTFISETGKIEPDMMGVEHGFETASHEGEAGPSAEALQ
Source text: For the selected NAI-008 (self-synthesized), the dimer formation of the target NAC1 protein by small molecule compounds was detected by immunoprecipitation technology and immunoblotting.

SKOV3 cells [1] = assay: MTT cell growth assay in SKOV3 cells; assay type: cell-based, human
Experimental: (§1) SKOV3 cell line: purchased from ATCC, an ovarian cancer tumor cell line that positively expresses NAC1.
(§2) The culture method of SKOV3 cell line was as follows: the cells were inoculated in DMEM (InVitrogen) medium containing 10% calf serum, and placed in a CO2 incubator with a volume fraction of 5% at 37° C., cultivated for two weeks.
This embodiment used a conventional MTT method. The specific method included following:
SKOV3 cells were plated overnight in 96-well plates at a density of 3000 cells/well. […] After 48 hours, 10 μl of MTT (5 mg/ml) was added to each well, and the supernatant was discarded after incubation at 37° C. for 4 hours. After dissolving the purple crystal with 150 μl of dimethyl sulfoxide, the plates were placed in a microplate reader (Bio-Rad Company) to detect the absorbance at 570 nm.

SKOV3 cells [2] = assay: Clonal colony formation experiment in SKOV3 cells; assay type: cell-based, human; conditions: NAI-008 20 μM combined with cisplatin or doxorubicin (0-40 μM), SKOV3, FIG. 2B
Experimental: as §1, §2
In this example, conventional clonal colony formation experiments were used. The specific method included the following:
SKOV3 cells were treated according to the experimental requirements for 24-48 hours, digested with trypsin, and the cell suspension was repeatedly pipetted to make the cells fully dispersed. The percentage of single cells were above 95%, and counted on a hemocytometer. Based on a concentration of 2000 cells per dish, 2 ml of cell suspension was inoculated into the culture dish, so that the cells were evenly dispersed. Culturing in 37° C., 5% CO2 for 7 to 14 days, with fresh medium from time to time. Observation under an inverted microscope. When macroscopic colonies appeared in the petri dish, the culture was terminated, the medium was discarded, and PBS was used to rinse twice. Crystal violet staining for 20 minutes. The results were analyzed after 2-3 washes with PBS.

SKOV3 cells [3] = assay: Immunoblot of cleaved PARP (apoptosis) in SKOV3 cells; assay type: cell-based, human
Experimental: The ovarian cancer cell line SKOV3 cells were plated into 24-well plates at a density of 20,000 cells/well, and after 16-24 hours of incubation, NAI-008 was added to a final concentration of 20 μM. After 4 hours, additional cisplatin or doxorubicin was added to a final concentration of 20 μM. After 48 hours, the expression of PARP cleaved by apoptotic protein was detected by immunoblotting.

Structure (SMILES): CC(C)(C)c1ccc(OCC(=O)NCC(=O)c2ccc(OC(=O)c3ccc4c(c3)OCO4)cc2)cc1 [NAI-008]
- formation of NAC1 protein dimer (NAC1 protein dimer): inhibits the formation of NAC1 protein dimer
- toxic effects on cells, single application (SKOV3 cells [1]; NAI-008 alone, SKOV3, FIGS. 2A and 2B): did not cause significant toxic effects on cells
- enhancement of cell growth inhibition by cisplatin and doxorubicin (MTT) (SKOV3 cells [1]; NAI-008 at final concentration 20 uM combined with cisplatin or doxorubicin (0-40 μM), SKOV3, 48 hours, FIG. 2A): significantly enhances the inhibition of cell growth and proliferation by cisplatin and doxorubicin
- enhancement of inhibitory effect of cisplatin on proliferation of SKOV3 (MTT screening) (SKOV3 cells [1]; second-round screening, combination with cisplatin, SKOV3): strongly enhances the inhibitory effect of cisplatin on the proliferation of ovarian cancer cell line SKOV3
- enhancement of cell proliferation inhibition by cisplatin and doxorubicin (colony formation) (SKOV3 cells [2]): significantly enhances the inhibition of cell growth and proliferation by cisplatin and doxorubicin
- expression of apoptotic proteins (cleaved PARP) versus cisplatin or doxorubicin alone (SKOV3 cells [3]; NAI-008 20 μM plus cisplatin or doxorubicin 20 μM, SKOV3, 48 hours, FIG. 2C): significantly higher
- apoptosis, compound alone (SKOV3 cells [3]; NAI-008 alone, SKOV3): did not cause significant apoptosis
